Data set [1] concerns Escherichia coli NBIMCC K12 407. The settings on record: broth microdilution, 0–320 µg/mL, 24 h; NI = no inhibition monitored. As to the method: (§1) The antimicrobial activity of the 7 new analogs of aurein 1.2 was evaluated by determining the MIC and MBC against Gram-positive strain Bacillus subtilis 3562 and Gram-negative strain Escherichia coli K12 407. The MIC of the newly synthesized analogs was assessed by applying a broth microdilution method, whereas their MBC was determined by using a spread plate method. All experiments were performed in triplicate.
(§2) Bacillus subtilis NBIMCC 3562 and Escherichia coli NBIMCC K12 407 were used as test microorganisms and were purchased from the National Bank for Industrial Microorganisms and Cell Cultures (NBIMCC, Sofia, Bulgaria). Exponential cultures were obtained in Nutrient broth (NB, HiMedia, Mumbai, India) for B. subtilis NBIMCC 3562 and Luria-Bertani (LB, HiMedia, Mumbai, India) for E. coli NBIMCC K12 407, after cultivation in an incubator shaker ES-20/60 (Biosan, Latvia) at 30/37 °C for 24 h. Then, the turbidity of the microbial cultures was adjusted to the 0.5 McFarland standard using a Grant Bio DEN-1B Densitometer (Grant Instruments, Royston, UK).
(§3) The antimicrobial activity of the obtained aurein 1.2 analogs was evaluated using the broth microdilution method, recommended by the Clinical and Laboratory Standards Institute (CLSI), to determine the minimum inhibitory concentration (MIC) of the peptides against B. subtilis NBIMCC 3562 and E. coli NBIMCC K12 407. All peptides were previously dissolved in 10% EtOH/H2O, and their 10 mg/mL stock solutions were stored at −20 °C. Bacterial cultures, previously adjusted to 0.5 McFarland standard, were incubated in the presence of different peptide concentrations (0–320 µg/mL) in 96-well polystyrene microplates (Deltalab S.L., Barcelona, Spain) at 30/37 °C for 24 h. The lowest concentration of each peptide, which inhibited bacterial growth, was considered as MIC. In addition, a drop of 20 µL of the 24 h inhibitory concentration test samples was spotted on the corresponding solid media to determine the minimum bactericidal concentration (MBC). […] All experiments were performed in triplicate.
For orientation: Broth dilution looks for growth in wells or tubes with falling amounts of substance.

The subject of data set [2] is Bacillus subtilis NBIMCC 3562. The following applies: broth microdilution, 0–320 µg/mL, 24 h; NI = no inhibition monitored. How it is done:
as §1, §2, §3

In a further data set the test system is BALB 3T3 cells. Description: BALB 3T3 Neutral Red Uptake cytotoxicity/phototoxicity test. The following applies: PIF = (CC50 −Irr)/(CC50 +Irr); PIF < 2 not phototoxic, 2 < PIF < 5 possible phototoxicity, PIF > 5 phototoxic. How it is done:
(§4) An in vitro BALB 3T3 Neutral Red Uptake assay was used to determine the cytotoxicity/phototoxicity of the peptides. Cytotoxicity of peptide analogs was calculated as a percentage relative to the negative control. […] Photo irritation factor (PIF) was used to assess the phototoxic potential of the peptide analogs. The PIF factor represents the ratio between the CC50 values of dark (non-irradiated or—Irr) and irradiated (+Irr) microplates, PIF = (CC50 − Irr)/(CC50 + Irr).
(§5) Mouse embryonic fibroblasts (BALB 3T3) were used to perform the cytotoxicity and phototoxicity tests. The tests were performed by OECD Guidelines for the Testing of Chemicals, Section 4, Test No. 432. Cells were plated at 1 × 10^4 cells/well in 96-well plates. Cells were incubated in a thermostat for 24 h. Then, the test peptides were added at various working concentrations (4–1000 μM). In the phototoxicity test, 96-well plates were irradiated with a dose of 2.4 J/cm^2 using a solar light simulator Helios-iO (SERIC Ltd., Tokyo, Japan). Cell viability was measured using the BALB 3T3 neutral red uptake test. Cytotoxicity is presented as % relative to the negative control.

Assay in data set [3]: as above
The following applies: mouse, Mean CC50 ± SD, BALB 3T3 cells. As to the method:
as §4, §5

A further data set concerns MCF-7. Description: cells. The following applies: read-out: Mean IC50 ± SD, MCF-7; MTT, 72 h. As to the method:
(§6) The peptides were studied for antiproliferative activity with an MTT-dye reduction assay. Cell cultures were incubated with the test peptides in twofold increasing concentrations (from 2 to 500 μM) for 72 h.
(§7) The antiproliferative activity of the peptides was determined in normal epithelial cells (MCF-12F) and tumor cells (MCF-7 and MDA-MB-231) by MTT-assay. Cells were plated 1 × 10^3 cells/100 µL/well of 96-well plates and incubated in a thermostat under standard conditions for 24 h. Cells were then incubated with the tested peptide analogs for 72 h in different concentrations (from 2 to 500 µM). The optical density of the formazan was measured at λ = 540 nm using a microplate reader. Antiproliferative activity was expressed as % from negative control. […] The statistical analysis of the results was performed using one-way ANOVA followed by Bonferroni’s post hoc test by GraphPad Prism 8 software (San Diego, CA, USA).

A further data set relates to MCF-12F. Description: cells. The settings on record: read-out: Mean IC50 ± SD, MCF-12F; MTT, 72 h, normal cell line. How it is done:
as §6, §7

A further data set has as its system MDA-MB-231. Description: cells. The settings on record: read-out: Mean IC50 ± SD, MDA-MB-231; MTT, 72 h. As to the method: as §6, §7

Where no end group is shown, it is not given here.

In general, CC50 refers to the concentration that lowers cell viability or growth by half. A high value points to better tolerance by the cells. As usually defined, the IC50 is the concentration at which inhibition is half-maximal. As for “GLFDIIKKIAESF-NH2 [Aurein 1.2, Gly^1-Leu^2-Phe^3-Asp^4-Ile^5-Ile^6-Lys^7-Lys^8-Ile^9-Ala^10-Glu^11-Ser^12-Phe^13-NH2]”, in data set [1], the “MIC, Escherichia coli NBIMCC K12 407” value turned out to be 40 mg/L. For the same substance, the “MIC, Bacillus subtilis NBIMCC 3562” value in data set [2] turned out to be 160 mg/L. Further, the “PIF (Photo Irritation Factor)” value in the data set with BALB 3T3 cells is on record as 1. Moreover, the CC50 in data set [3] (+Irr, irradiated 2.4 J/cm^2, NRU) was determined as 87.2 ± 1.88 µM; in data set [3] (−Irr, non-irradiated (dark), NRU), 87.6 ± 2.45 µM. The concentration for half-maximal inhibition (IC50) came out at 68.9 ± 2.12 µM in the data set on MCF-7, 71.4 ± 2.88 µM in the data set on MCF-12F and 70.9 ± 2.06 µM in the data set with MDA-MB-231.

The values are drawn from publication PMC12074479, “Design, Synthesis, and Biological Evaluation of New Analogs of Aurein 1.2 Containing Non-Proteinogenic Amino Acids” (Molecules, 2025).
